From US4127687A, “Prevention of fouling of marine structures such as boat hulls” (Rohm and Haas Company, priority 1976, dated 1978) come the findings set out here.

Structures are written as SMILES.

One series relates to barnacle. In words: Membrane Diffusion Raft Trials, barnacle control. Format: in vivo, barnacles. The conditions noted are these: membrane test, average 15 to 16 weeks of immersion. The source says: (§1) 1). FIELD TESTS: - Membrane Diffusion Raft Trials
(§2) A specially constructed raft provides three types
(§3) a). Waterline Well illuminated, aerated
(§4) b). Flats Poorly illuminated deeper
(§5) A known quantity of the test compound is placed into a cylindrical plastic container whose open end is then covered with a membrane of known porosity; the complete unit is attached to the appropriate raft panel so that the poison can freely diffuse into the free water layer around it. Regular inspections, recording time and quantity of settlement, allow a life history of each membrane trial to be constructed. Each raft panel contains 35 compounds to be evaluated together with 4 standard poisons and 1 non-toxic membrane for control.
(§6) The behavior on the raft can thus be compared with that of the standard poisons and the non-toxic control. At normal loading a membrane over the standard poisons would be free from macro-fouling after six months immersion. Compounds showing selective effects against restricted groups of fouling organisms also show up by membrane testing.
(§7) After the completion of membrane tests the contents of all containers are checked visually for poison loss. An empty container indicates an unacceptably high solubility for long term effectiveness; where the poison loss is low the compound is tested in one of two ways depending on its performance against fouling.
(§8) In the membrane tests, the results of approximately 140 compounds evaluated appear in Table 1. The symbols "0" means no detactable effect, the symbol "+" indicates the compound is active against the given fouling organism, and the symbol "++" means that the compound appears to be effective over at least about a four month period for essentially preventing fouling activity by the given organism. In the Table, "weed" designates a grass-like algal growth common in sea water.
(§9) Membrane Test results are of an average 15 to 16 weeks of immersion,
(§10) ^a 0 = none, + = some, + + = effective.
^f The 1975 Spring settlement of barnacles was very meager and the […]

For another series, the system named is Enteromorpha spores. Briefly: Laboratory toxicity test (Lab Bioassay) with Enteromorpha spores. Particulars: using Enteromorpha spores. Format: in vivo. The source says:
Standard laboratory toxicity tests use Enteromorpha spores (zoospores or gametes) but Ectocarpus spores and barnacle nauplii may also be used. During the spore tests additional information on the control of bacterial and diatom slimes becomes available since these organisms are unavoidably introduced with the spore inoculum.
More detailed laboratory toxicity tests on promising compounds determine LD50 values as percentage saturated solution.
^c Using Enteromorpha spores.

Series [1] deals with weed. In words: Membrane Diffusion Raft Trials, weed control. The class given is in vivo, grass-like algal growth common in sea water. Particulars: membrane test, average 15 to 16 weeks of immersion.
From the text: as §1, §2, §3, §4, §5, §6, §7, §8, §9, §10

Series [2] can be described thus: Amount of toxicant remaining in the test container after membrane diffusion raft tests. The class given is physicochemical. Further details: key: 0: empty or trace; +: some; + +: ample. Particulars: after completion of membrane diffusion raft tests.
From the text: as §5, §7
^b Amount of toxicants remaining in the test container after the
completion of the membrane diffusion raft tests: 0 = empty or trace, + =

Series [3] deals with weed. In words: Paint panel / plaque tests against weed (Table 2). Further details: key: high performance; medium performance; low performance; poor or unacceptable performance. Format: in vivo, grass-like algal growth common in sea water. The conditions noted are these: April to November, 1975. The source says: (3) PAINT FORMULATION AND TEST PANEL OR PLAQUE TESTS
In order to evaluate the compound under practical conditions, weighed quantities of promising compounds are ground in standard volumes of a selected range of paint media and brushed out on plaques for marine immersion.
The anti-fouling paint formulations used is exemplified by the following: […]
The most preferred specific compounds were utilized in paints including vinyl chloride-vinyl acetate copolymers, chlorinated rubber, acrylic emulsions, and conventional paints with or without rosin to contain 20% by weight of biocide in the wet film and in some cases (Example 144 and Example 145) with concentrations of 5, 10, and 15% based on the wet film. Each of the compounds is also described in the membrane tests noted above. The paints were applied at normal thicknesses to plaques or panels of 10 centimeters by 10 centimeters which were immersed in various positions as described for the raft noted above. The compounds and results, as against weed, in the season April to November, 1975, are as follows: […]

In the case of `Cc1cccc(-n2sc(Cl)c(C)c2=O)c1` [Example 119], in the series on barnacle, the “Barnacle Control” value came out at 0. Moreover, in the series on Enteromorpha spores, the “Lab Bioassay LD50” value is 0.1 percentage saturated solution. Further, the “Weed Control” value with weed [1] is “+ +”. The “Contents at the end of test (amount of toxicants remaining in the test container)” value in series [2] is given as “+ +”.
As to `Cc1ccccc1-n1sc(Cl)c(C)c1=O` [Example 118], in the series with barnacle, the “Barnacle Control” value is on record as 0. Besides, the “Lab Bioassay LD50” value in the series on Enteromorpha spores is 0.15 percentage saturated solution. For the same compound, in the series with weed [1], the “Weed Control” value was “+ +”. Moreover, the “Contents at the end of test (amount of toxicants remaining in the test container)” value in series [2] was “+”.
Turning to `CCCCCCCCCCn1scc(Br)c1=O` [Example 49], in the series on barnacle, the “Barnacle Control” value was 0. For the same compound, the “Lab Bioassay LD50” value with Enteromorpha spores is 0.01 percentage saturated solution. In the series on weed [1], the “Weed Control” value is “+ +”. In addition, the “Contents at the end of test (amount of toxicants remaining in the test container)” value in series [2] was “+”.
In the same order, the values of `Cc1c(Cl)sn(-c2ccc(O)cc2)c1=O` [Example 125] are 0, > 1 percentage saturated solution, “+ +” and “+ +”.
In the same order, the values of `Cc1c(Cl)sn(-c2ccccc2C(F)(F)F)c1=O` [Example 128] are 0, 0.6 percentage saturated solution, “+ +” and “+”.
In the same order, the values of `CCOC(=O)c1ccc(-n2sc(Cl)c(C)c2=O)cc1` [Example 126] are “+ +”, 0.13 percentage saturated solution, “+” and “+ +”.
Consider `Cc1ccc(-n2sc(Cl)c(C)c2=O)cc1C` [Example 122], for which the “Barnacle Control” value in the series on barnacle is “+ +”. Besides, the “Lab Bioassay LD50” value in the series on Enteromorpha spores is 0.01 percentage saturated solution. The “Weed Control” value in the series with weed [1] is “+ +”. Moreover, in series [2], the “Contents at the end of test (amount of toxicants remaining in the test container)” value is reported as “+ +”.
Consider `CCCCc1ccc(-n2sc(Cl)c(C)c2=O)cc1` [Example 121], for which the “Barnacle Control” value with barnacle is given as “+ +”. Moreover, in the series on Enteromorpha spores, the “Lab Bioassay LD50” value was 0.13 percentage saturated solution. The “Weed Control” value with weed [1] is “+ +”.
Regarding `O=c1c(Cl)c(Cl)sn1Cc1ccccc1` [Example 148], in the series on weed [3], the “Effectiveness in paint CONV (conventional anti-fouling formulation)” value (from here on “Effectiveness in paint CONV”) was “p”, the “Effectiveness in paint CR (chlorinated rubber)” value was “h”, the “Effectiveness in paint CR/R (chlorinated rubber/rosin)” value is given as “h” and the “Effectiveness in paint EM (acrylic emulsion)” value (shortened to “Effectiveness in paint EM”) is reported as “p”. In the series on weed [3], the “Effectiveness in paint V (polyvinyl chloride-acetate)” value is reported as “h” and the “Effectiveness in paint V/R (vinyl/rosin)” value is listed as “h”.
As to `O=c1c(Cl)c(Cl)sn1CCc1ccccc1` [Example 146], in the series on weed [3], the “Effectiveness in paint CONV” value is on record as “h”, the “Effectiveness in paint CR (chlorinated rubber)” value was “h”, the “Effectiveness in paint CR/R (chlorinated rubber/rosin)” value is given as “h” and the “Effectiveness in paint EM” value is “p”. In addition, in the series with weed [3], the “Effectiveness in paint V (polyvinyl chloride-acetate)” value is on record as “h” and the “Effectiveness in paint V/R (vinyl/rosin)” value was “h”.
With `Cc1c(Cl)sn(-c2ccc(Cl)cc2)c1=O` [Example 147], in the series with weed [3], the “Effectiveness in paint CONV” value is given as “p”, the “Effectiveness in paint CR (chlorinated rubber)” value was “h”, the “Effectiveness in paint CR/R (chlorinated rubber/rosin)” value is “h” and the “Effectiveness in paint EM” value is “m”. In addition, in the series with weed [3], the “Effectiveness in paint V (polyvinyl chloride-acetate)” value is recorded as “h” and the “Effectiveness in paint V/R (vinyl/rosin)” value is listed as “h”.
On to `O=c1c(Cl)c(Cl)sn1Cc1ccc(Cl)cc1` [Example 149], for which, in the series on weed [3], the “Effectiveness in paint CONV” value is on record as “h”, the “Effectiveness in paint CR/R (chlorinated rubber/rosin)” value is reported as “h”, the “Effectiveness in paint EM” value is “h” and the “Effectiveness in paint V (polyvinyl chloride-acetate)” value is listed as “l”. Also, in the series on weed [3], the “Effectiveness in paint V/R (vinyl/rosin)” value is recorded as “h”.
